EC50 data for 49 compounds are collected here from patent US20220409593A1 (ARKUDA THERAPEUTICS, priority 2019, published 2022).

pEC50: −log10 of the molar value.

In one assay the test system is secreted mouse PGRN. The assay can be described thus: progranulin induction cellular assay (PGRN assay, ELISA-based readout). The conditions noted are these: Mus musculus, progranulin secreted into cell culture medium, cells named in method: mouse primary microglia, primary cortical neurons, BV-2. Here is the method: Cellular Assays: To measure the efficacy of compounds, a progranulin induction cellular assay in mouse primary microglia (pMG), primary cortical neurons, and BV-2 cell lines is used. BV-2 cells are split the day before plating into a 96well plate format at approximately 80%. Cells should be plated the day before and allowed for 1 hour attachment period and for 16 hour incubation. Levels of progranulin secreted into the cell culture medium or retained in the cell lysate can be quantified using an ELISA-based readout and measurement of secreted mouse PGRN in the medium was assessed by the methodology published by Ghidoni et al. 2012. Standard ELISA kits to measure PGRN are available from vendors such as Adipogen, R&D, and Biovendor.
Table D below presents the results of a PGRN assay as described above.
On the technique in general: In an ELISA, binding on a coated surface is turned into a signal by an enzyme label.
The compound `Fc1ccc([C@H]2c3ccccc3CCN2C2=NO[C@@]3(CN4CCC3(F)CC4)O2)cc1` (single isomer, unassigned) [Compound 3034] gave a pEC50 of 6.35.

Turning to `CN(C)[C@@H]1CC[C@@]2(CN=C(N3CCc4ccccc4[C@@H]3c3ccc(F)cc3)O2)C1` (single isomer, unassigned) [Compound 3163], the pEC50 is 6.63.

With `OCCN1CC[C@@]2(CN=C(N3CCc4ccccc4[C@@H]3c3ccc(F)cc3)O2)C1` [Compound 3175, 2-((S)-2-((S)-1-(4-fluorophenyl)-3,4-dihydroisoquinolin-2(1H)-yl)-1-oxa-3,7-diazaspiro[4.4]non-2-en-7-yl)ethan-1-ol], the pEC50 was 6.74.

In turn, `Fc1ccc([C@H]2c3ccccc3CCN2C2=NC[C@@H]([C@H]3CCNC3)O2)cc1` (single isomer, unassigned) [Compound 3065] gave a pEC50 of 6.61.

The compound `N[C@H]1CCC[C@]12CN=C(N1CCc3ccccc3[C@@H]1c1ccc(F)cc1)O2` (single isomer, unassigned) [Compound 3086] had a pEC50 of 6.12.

The compound `CN(C)[C@@H]1CC[C@]2(CN=C(N3CCc4ccccc4[C@@H]3c3ccc(F)cc3)O2)C1` (single isomer, unassigned) [Compound 3164] gave a pEC50 of 6.86.

In turn, `Fc1ccc([C@H]2c3ccccc3CCN2C2=NC[C@@]3(CNC[C@@H]3F)O2)cc1` (single isomer, unassigned) [Compound 3170] gave a pEC50 of 6.27. Compared with the last compound, the pEC50 is 0.59 log units lower.

For `CN1CCC[C@]2(CN=C(N3CCc4ccccc4[C@@H]3c3cccc(F)c3F)O2)C1` (stereo in doubt) [Compound 3043], the pEC50 was 5.41.

In turn, `Fc1ccc([C@H]2c3ccccc3CCN2C2=NC[C@]3(CN4CCC3(F)CC4)O2)cc1` (single isomer, unassigned) [Compound 3033] gave a pEC50 of 5.62.

In turn, `CN1CC[C@@H](F)[C@]2(CN=C(N3CCc4ccccc4[C@@H]3c3ccc(F)cc3)O2)C1` (single isomer, unassigned) [Compound 3045] had a pEC50 of 5.35. This pEC50 lies 0.27 log units lower than the previous one.

Turning to `Fc1ccc([C@H]2c3ccccc3CCN2C2=NC[C@@H]([C@@H]3CCNC3)O2)cc1` (single isomer, unassigned) [Compound 3066], the pEC50 is 7.26.

`N[C@@H]1CC[C@]2(CN=C(N3CCc4ccccc4[C@@H]3c3ccc(F)cc3)O2)C1` (single isomer, unassigned) [Compound 3079] showed a pEC50 of 6.63.

`Fc1cccc([C@H]2c3ccccc3CCN2C2=NC[C@@]3(CN4CCC3CC4)O2)c1` (stereo in doubt) [Compound 3020] had a pEC50 of 5.00.

In turn, `Fc1cccc([C@@H]2c3ccccc3CCN2C2=NC[C@]3(CN4CCC3CC4)O2)c1` (stereo in doubt) [Compound 3023] gave a pEC50 of 5.66. Compared with the last compound, the pEC50 is 0.66 log units higher.

Take `Fc1ccc([C@H]2c3ccccc3CCN2C2=NC[C@@H](C3CCNCC3)O2)cc1` [Compound 3067]: the pEC50 was 6.51. This pEC50 lies 0.85 log units higher than the previous one.

In turn, `Fc1cc(F)cc([C@@H]2c3ccccc3CCN2C2=NC[C@@]3(CN4CCC3CC4)O2)c1` (stereo in doubt) [Compound 3038] gave a negative-log EC50 (pEC50) of 5.41.

As for `CN1CCC[C@@]2(CN=C(N3CCc4ccccc4[C@H]3c3ccc(F)c(F)c3)O2)C1` (stereo in doubt) [Compound 3032], the pEC50 is 5.46.

In turn, `Fc1ccc([C@H]2c3ccccc3CCN2C2=NC[C@@]3(CN4CCC3CC4)O2)cc1F` (stereo in doubt) [Compound 3024] had a negative-log EC50 (pEC50) of 5.40.

With `CN1CCC[C@]2(CN=C(N3CCc4ccccc4[C@H]3c3cccc(F)c3)O2)C1` (single isomer, unassigned) [Compound 3008], the pEC50 is < 5.00.

As for `Fc1ccc([C@H]2c3ccccc3CCN2C2=NC[C@@]3(CCCNC3)O2)cc1` [Compound 3051], the pEC50 is 6.01.

`c1ccc([C@H]2c3ccccc3CCN2C2=NC[C@@]3(CCNC3)O2)cc1` (single isomer, unassigned) [Compound 3165] had a pEC50 of 6.93. Compared with the last compound, the pEC50 is 0.92 log units higher.

In the case of `CN1CCC[C@]2(CN=C(N3CCc4ccccc4[C@@H]3c3ccc(F)cc3F)O2)C1` (single isomer, unassigned) [Compound 3014], the pEC50 was 5.77.

As to `O=C1N[C@@]2(CCCNC2)N=C1N1CCc2ccccc2[C@@H]1c1ccc(F)cc1` [Compound 3148], the pEC50 was 7.07.

Take `Fc1ccc([C@H]2c3ccccc3CCN2C2=N[C@@H](C3CCNCC3)CO2)cc1` (single isomer, unassigned) [Compound 3133]: the pEC50 is 6.21.

As for `N[C@H]1C[C@@]2(COC(N3CCc4ccccc4[C@@H]3c3ccc(F)cc3)=N2)C1` [Compound 3162], the pEC50 is 6.19. This pEC50 and that of the compound before are within 0.2 log units of each other.

Turning to `Fc1ccc([C@H]2c3ccccc3CCN2C2=NC[C@]3(CCCNC3)O2)cc1` [Compound 3052], the pEC50 was 6.36.

In turn, `Fc1ccc([C@H]2c3ccccc3CCN2C2=NCC(C3CNC3)O2)cc1` (single isomer, unassigned) [Compound 3069] gave a negative logarithm of the EC50 (pEC50) of 6.96.

In the case of `CN1CCC[C@]2(CN=C(N3CCc4ccccc4[C@@H]3c3cc(F)c(F)c(F)c3)O2)C1` (single isomer, unassigned) [Compound 3002], the pEC50 is 5.29.

As to `Fc1ccc([C@H]2c3ccccc3CCN2C2=NC[C@@]3(CCNC3)O2)cc1` [Compound 3049], the pEC50 was 7.72.

`Fc1ccc([C@H]2c3ccccc3CCN2C2=NC[C@]3(CN4CCC3CC4)O2)cc1F` (stereo in doubt) [Compound 3025] gave a pEC50 of 5.39.

Regarding `Fc1ccc([C@H]2c3ccccc3CCN2C2=NC[C@H]([C@H]3CCCNC3)O2)cc1` (single isomer, unassigned) [Compound 3076], the pEC50 was < 5.00.

For the compound `Fc1cccc([C@@H]2c3ccccc3CCN2C2=NC[C@@]3(CN4CCC3CC4)O2)c1` (stereo in doubt) [Compound 3022], the pEC50 is 5.83.

As for `CN1CCC[C@@H]([C@H]2CN=C(N3CCc4ccccc4[C@@H]3c3ccc(F)cc3)O2)C1` (single isomer, unassigned) [Compound 3151], the pEC50 is 5.51.

In turn, `N[C@@H]1CC[C@@]2(CN=C(N3CCc4ccccc4[C@@H]3c3ccc(F)cc3)O2)C1` (single isomer, unassigned) [Compound 3081] had a pEC50 of 6.92.

Take `N[C@H]1CC[C@@]2(COC(N3CCc4ccccc4[C@@H]3c3ccc(F)cc3)=N2)C1` [Compound 3084, (5S,7S)-2-((S)-1-(4-fluorophenyl)-3,4-dihydroisoquinolin-2(1H)-yl)-3-oxa-1-azaspiro[4.4]non-1-en-7-amine]: the pEC50 is 6.69.

Take `CN1CC[C@]2(CN=C(N3CCc4ccccc4[C@@H]3c3ccc(F)cc3)O2)C1` [Compound 3168, (R)-2-((S)-1-(4-fluorophenyl)-3,4-dihydroisoquinolin-2(1H)-yl)-7-methyl-1-oxa-3,7-diazaspiro[4.4]non-2-ene]: the pEC50 is 7.16.

The compound `O=C1N[C@]2(CCCNC2)N=C1N1CCc2ccccc2[C@@H]1c1ccc(F)cc1` [Compound 3147] gave a pEC50 of 7.30.

As for `c1ccc([C@H]2c3ccccc3CCN2C2=NC[C@]3(CCNC3)O2)cc1` (single isomer, unassigned) [Compound 3166], the pEC50 was 6.79.

`Fc1cc(F)cc([C@H]2c3ccccc3CCN2C2=NC[C@@]3(CN4CCC3CC4)O2)c1` (racemic) [Compound 3036]: the negative logarithm of the EC50 (pEC50) is 5.43.

Compound `Fc1ccc([C@H]2c3ccccc3CCN2C2=N[C@]3(CCCNC3)CO2)cc1` (single isomer, unassigned) [Compound 3053] showed a pEC50 of 6.60.

On to `Fc1ccc([C@H]2c3ccccc3CCN2C2=NC3(CCNCC3)CO2)cc1` [Compound 3056, (S)-2-(1-(4-fluorophenyl)-3,4-dihydroisoquinolin-2(1H)-yl)-3-oxa-1,8-diazaspiro[4.5]dec-1-ene], for which the pEC50 was 6.96.

As to `CN1CCC[C@@]2(CN=C(N3CCc4ccccc4[C@@H]3c3cc(F)c(F)c(F)c3)O2)C1` (single isomer, unassigned) [Compound 3003], the pEC50 was 5.37.

As to `N[C@H]1CC[C@]2(CN=C(N3CCc4ccccc4[C@@H]3c3ccc(F)cc3)O2)C1` (single isomer, unassigned) [Compound 3078], the pEC50 was 6.90.

Consider `Fc1ccc([C@H]2c3ccccc3CCN2C2=NC[C@]3(CCN(CCC(F)(F)F)C3)O2)cc1` [Compound 3173, (R)-2-((S)-1-(4-fluorophenyl)-3,4-dihydroisoquinolin-2(1H)-yl)-7-(3,3,3-trifluoropropyl)-1-oxa-3,7-diazaspiro[4.4]non-2-ene], for which the pEC50 was 5.98. This pEC50 lies 0.92 log units lower than the previous one.

`Fc1ccc([C@H]2c3ccccc3CCN2C2=NC[C@@H]([C@H]3CCCNC3)O2)cc1` (single isomer, unassigned) [Compound 3077] had a pEC50 of 6.32.

`CN1CCC2(CC1)COC(N1CCc3ccccc3[C@@H]1c1ccc(F)cc1)=N2` [Compound 3058, (S)-2-(1-(4-fluorophenyl)-3,4-dihydroisoquinolin-2(1H)-yl)-8-methyl-3-oxa-1,8-diazaspiro[4.5]dec-1-ene] showed a pEC50 of 6.42.

With `Fc1ccc([C@H]2c3ccccc3CCN2C2=NC[C@@]3(CCN(CC(F)(F)F)C3)O2)cc1` [Compound 3172, (S)-2-((S)-1-(4-fluorophenyl)-3,4-dihydroisoquinolin-2(1H)-yl)-7-(2,2,2-trifluoroethyl)-1-oxa-3,7-diazaspiro[4.4]non-2-ene], the pEC50 is 5.82. This pEC50 is 0.60 log units lower than that of the compound before.

The same assay, now with this note: progranulin secreted into cell culture medium, cells named in method: mouse primary microglia, primary cortical neurons, BV-2.
Compound `CN1CCC[C@]2(CN=C(N3CCc4ccccc4[C@@H]3c3cccc(F)c3)O2)C1` (single isomer, unassigned) [Compound 3006] showed a negative-log EC50 (pEC50) of 6.00.

`CN1CCC[C@]2(CN=C(N3CCc4ccccc4[C@@H]3c3cccc(F)c3)O2)C1` (single isomer, unassigned) [Compound 3009] gave a pEC50 of 5.15.

Broadly, the pEC50 is the negative decadic logarithm of the EC50, by convention in mol/L.
